In publication PMC11855827, “High-Throughput Screening of Five Compound Libraries for Anthelmintic Activity and Toxicity Leads to the Discovery of Two Flavonoid Compounds” (International Journal of Molecular Sciences, 2025):
“And” between values parts separate entries of the source, which are not always exact repeats. Equal values may be shown once. *1 amine or outer side, *2 acyl side, *3 side chain or, on linkers, in order; H or OH if unused. Where a SMILES comes first, the peptide text is derived from it. Bridges are numbered along the chain shown (N, C = ends). [ ]: non-standard residue; d: D form. The star is where a group is joined. hTyr(3S-OH,4S-OH,3'-OSO3H) = N[C@H](C(=O)O)[C@H](O)[C@@H](O)c1ccc(O)c(OS(=O)(=O)O)c1; Orn(4R-OH,5R-OH) = O=C([C@H](C[C@@H](O)[C@@H](O)N[*:3])N[*:1])[*:2]; Pro(3S-OH,4S-Me) = C[C@H]1CN[C@H](C(=O)O)[C@H]1O; X1 = CCCCCOc1ccc(-c2cc(-c3ccc(C(=O)*)cc3)no2)cc1; Gln(3R-OH) = NC(=O)C[C@@H](O)[C@H](N)C(=O)O; Hyp = O=C(O)[C@@H]1C[C@@H](O)CN1

System: C. elegans
Conditions: Table S2, C. elegans SS assay, 110 μM, averages of 4 data points

CC(C)(C)NC(=O)[C@@H]1CN(Cc2cccnc2)CCN1C[C@@H](O)C[C@@H](Cc1ccccc1)C(=O)N[C@H]1c2ccccc2C[C@H]1O.O=S(=O)(O)O [Indinavir (sulfate)]
Percentage of motility inhibition 0 h: 8%
Percentage of motility inhibition 24 h: 10%

CC1(C)CC[C@]2(C(=O)O)CC[C@]3(C)C(=CC[C@@H]4[C@@]5(C)CC[C@@H](O)C(C)(C)[C@@H]5CC[C@]43C)[C@@H]2C1 [3-Epioleanolic acid]
Percentage of motility inhibition 0 h: 29%
Percentage of motility inhibition 24 h: 34%

C=C1[C@H](O)C[C@H]2[C@@H](/C=C(\C)C(=O)[C@@]3(O)C[C@H](C)[C@H](O)[C@@H]3[C@H]1O)C2(C)C [7beta-Hydroxylathyrol]
Percentage of motility inhibition 0 h: 6%
Percentage of motility inhibition 24 h: 14%

Rebaudioside C
Percentage of motility inhibition 0 h: 0%
Percentage of motility inhibition 24 h: 6%

CC=C1[C@H](O[C@@H]2O[C@H](CO)[C@@H](O)[C@H](O)[C@H]2O)OC=C(C(=O)OC)[C@H]1CC(=O)OC[C@H]1O[C@@H](OCCc2ccc(O)cc2)[C@H](O)[C@@H](O)[C@@H]1O (stereo in doubt) [Specneuzhenide]
Percentage of motility inhibition 0 h: 3%
Percentage of motility inhibition 24 h: 31%

C/C1=C/CC[C@H](C)C(=O)C[C@@H](C(C)C)C(=O)C1 [Curdione]
Percentage of motility inhibition 0 h: 7%
Percentage of motility inhibition 24 h: 22%

C[C@H](CC[C@@H](O[C@@H]1O[C@H](CO[C@@H]2O[C@H](CO)[C@@H](O)[C@H](O)[C@H]2O)[C@@H](O)[C@H](O)[C@H]1O[C@@H]1O[C@H](CO)[C@@H](O)[C@H](O)[C@H]1O)C(C)(C)O)[C@H]1CC[C@@]2(C)[C@@H]3CC=C4[C@@H](CC[C@H](O[C@@H]5O[C@H](CO[C@@H]6O[C@H](CO)[C@@H](O)[C@H](O)[C@H]6O)[C@@H](O)[C@H](O)[C@H]5O)C4(C)C)[C@]3(C)[C@H](O)C[C@]12C [Mogroside V]
Percentage of motility inhibition 0 h: 19%
Percentage of motility inhibition 24 h: 12%

CC1(C)CC[C@]2(C(=O)O)CC[C@]3(C)C(=CC[C@@H]4[C@@]5(C)CC[C@H](O[C@@H]6OC[C@H](O)[C@H](O)[C@H]6O[C@@H]6O[C@H](CO)[C@@H](O)[C@H](O)[C@H]6O)[C@@](C)(CO)[C@@H]5CC[C@]43C)[C@@H]2C1 [Cauloside C]
Percentage of motility inhibition 0 h: 0%
Percentage of motility inhibition 24 h: 10%

O=C(O)[C@@H]1C[C@@H](O)CN1
Percentage of motility inhibition 0 h: 11%
Percentage of motility inhibition 24 h: 0%

C=CC1CNC(=S)O1 (stereo not shown) [Epigoitrin]
Percentage of motility inhibition 0 h: 6%
Percentage of motility inhibition 24 h: 0%

CC1(C)C[C@@H](O)[C@]2(C)CC[C@]3(C)C(=CC[C@@H]4[C@@]5(C)CC[C@H](O[C@@H]6O[C@H](C(=O)O)[C@@H](O)[C@H](O)[C@H]6O[C@@H]6O[C@H](CO)[C@H](O)[C@H](O)[C@H]6O[C@@H]6O[C@H](CO)[C@@H](O)[C@H](O)[C@H]6O)[C@](C)(CO)[C@@H]5CC[C@]43C)[C@@H]2C1 [Soyasaponin Ba]
Percentage of motility inhibition 0 h: 0%
Percentage of motility inhibition 24 h: 25%

CC1(C)C2=CCCC(C)(C)[C@]23CC[C@H]1C3 [Isolongifolene]
Percentage of motility inhibition 0 h: 2%
Percentage of motility inhibition 24 h: 39%

Miquelianin
Percentage of motility inhibition 0 h: 1%
Percentage of motility inhibition 24 h: 0%

COc1cc2c(cc1OC)[C@@H]1Cc3ccc(OC)c(OC)c3CN1CC2 [Rotundine]
Percentage of motility inhibition 24 h: 12%

CC(=O)O[C@@]12CO[C@@H]1C[C@@H](O)[C@@]1(C)C(=O)[C@H](O)C3=C(C)[C@@H](OC(=O)[C@H](O)[C@@H](NC(=O)c4ccccc4)c4ccccc4)C[C@@](O)([C@@H](OC(=O)c4ccccc4)[C@H]21)C3(C)C [7-Epi 10-desacetyl paclitaxel]
Percentage of motility inhibition 0 h: 0%
Percentage of motility inhibition 24 h: 26%

COc1ccc(-c2oc3c(CC=C(C)C)c(O[C@@H]4O[C@H](CO)[C@@H](O)[C@H](O)[C@H]4O)cc(O)c3c(=O)c2O)cc1 [Icariside I]
Percentage of motility inhibition 0 h: 0%
Percentage of motility inhibition 24 h: 23%

C[C@@H]1CC[C@]2(C(=O)O)CC[C@]3(C)C(=CC[C@@H]4[C@@]5(C)CC[C@H](O)[C@](C)(C(=O)O)[C@@H]5CC[C@]43C)[C@@H]2[C@]1(C)O [Ilexgenin A]
Percentage of motility inhibition 0 h: 27%
Percentage of motility inhibition 24 h: 0%

Cl.N=C(N=C(N)N)N1CCOCC1 [Moroxydine (hydrochloride)]
Percentage of motility inhibition 0 h: 13%
Percentage of motility inhibition 24 h: 8%

CN1c2ccccc2C(=O)N2CCc3c([nH]c4ccccc34)[C@@H]21 (racemic) [(±)‐Evodiamine]
Percentage of motility inhibition 0 h: 0%
Percentage of motility inhibition 24 h: 12%

CC1(C)CC[C@]2(C(=O)O[C@@H]3O[C@H](CO)[C@@H](O)[C@H](O)[C@H]3O)CC[C@]3(C)C(=CC[C@@H]4[C@@]5(C)CC[C@H](O[C@@H]6O[C@H](C(=O)O)[C@@H](O[C@@H]7O[C@@H](CO)[C@H](O)[C@H]7O)[C@H](O)[C@H]6O)C(C)(C)[C@@H]5CC[C@]43C)[C@@H]2C1 [Araloside A]
Percentage of motility inhibition 0 h: 6%
Percentage of motility inhibition 24 h: 0%

COc1ccc2c(c1)[nH]c1c(C)nccc12.Cl [Harmine (hydrochloride)]
Percentage of motility inhibition 0 h: 22%
Percentage of motility inhibition 24 h: 11%

C=C(C)C(=O)O[C@H]1[C@@H]2[C@H](C)C(=O)O[C@@H]2C[C@@H](C)[C@@H]2C=CC(=O)[C@]21C [Arnicolide D]
Percentage of motility inhibition 0 h: 16%
Percentage of motility inhibition 24 h: 25%

C1CNCCN1.O=C(O)CC(O)C(=O)O (stereo not shown) [Piperazine (malate)]
Percentage of motility inhibition 0 h: 26%
Percentage of motility inhibition 24 h: 14%

CC(C)=CCC[C@@](C)(O)[C@H]1CC[C@]2(C)[C@@H]1[C@H](O)C[C@@H]1[C@@]3(C)CC[C@H](O)C(C)(C)[C@@H]3[C@@H](O)C[C@]12C [20(R)-Protopanaxatriol]
Percentage of motility inhibition 0 h: 0%
Percentage of motility inhibition 24 h: 21%

COC(=O)C1=CO[C@@H](O)[C@@H]2[C@@H](C)[C@@H](O)C[C@H]12 [Loganetin]
Percentage of motility inhibition 0 h: 0%
Percentage of motility inhibition 24 h: 2%

COC(=O)N[C@H](C(=O)N1CC2(CC2)C[C@H]1c1ncc(-c2ccc3c(c2)C(F)(F)c2cc(-c4ccc5nc([C@@H]6[C@H]7CC[C@H](C7)N6C(=O)[C@@H](NC(=O)OC)C(C)C)[nH]c5c4)ccc2-3)[nH]1)C(C)C.O=C(O)C(O)C(O)C(=O)O [Ledipasvir (D‐tartrate)]
Percentage of motility inhibition 0 h: 34%
Percentage of motility inhibition 24 h: 13%

CCN1CCN(C(=O)N[C@@H](C(=O)N[C@@H]2C(=O)N3[C@@H]2SC(C)(C)[C@@H]3C(=O)[O-])c2ccccc2)C(=O)C1=O.[Na+] [Piperacillin (sodium)]
Percentage of motility inhibition 0 h: 31%
Percentage of motility inhibition 24 h: 2%

CC12CCC(CC1=O)C2(C)C (stereo not drawn) [(+)-Camphor]
Percentage of motility inhibition 0 h: 2% and 0%
Percentage of motility inhibition 24 h: 5% and 0%

CC1(C)CC[C@]2(C(=O)O[C@@H]3O[C@H](CO)[C@@H](O)[C@H](O)[C@H]3O)CC[C@]3(C)C(=CC[C@@H]4[C@@]5(C)CC[C@H](O[C@@H]6O[C@H](C(=O)O)[C@@H](O)[C@H](O)[C@H]6O[C@@H]6O[C@H](CO)[C@@H](O)[C@H](O)[C@H]6O)C(C)(C)[C@@H]5CC[C@]43C)[C@@H]2C1 [Ginsenoside Ro]
Percentage of motility inhibition 0 h: 1%
Percentage of motility inhibition 24 h: 0%

Cc1ccn(C)n1 [1,3‐Dimethylpyrazole]
Percentage of motility inhibition 0 h: 6%
Percentage of motility inhibition 24 h: 3%

Neoline
Percentage of motility inhibition 0 h: 21%
Percentage of motility inhibition 24 h: 1%

CC1=C(/C=C/C(C)=C/C=C/C(C)=C/C=C/C=C(C)/C=C/C=C(\C)C=O)C(C)(C)CCC1 [β-Apo-8'-carotenal]
Percentage of motility inhibition 0 h: 12%
Percentage of motility inhibition 24 h: 1%

CCCCCOc1ccc(-c2cc(-c3ccc(C(=O)N[C@H]4C[C@@H](O)[C@@H](O)NC(=O)[C@@H]5[C@@H](O)[C@@H](C)CN5C(=O)[C@H]([C@H](O)CC(N)=O)NC(=O)[C@H]([C@H](O)[C@@H](O)c5ccc(O)c(OS(=O)(=O)[O-])c5)NC(=O)[C@@H]5C[C@@H](O)CN5C(=O)[C@H]([C@@H](C)O)NC4=O)cc3)no2)cc1.[Na+] [Micafungin (sodium)] (X1-[Orn(4R-OH,5R-OH)]T[Hyp][hTyr(3S-OH,4S-OH,3'-OSO3H)][Gln(3R-OH)][Pro(3S-OH,4S-Me)]; lactam 1-C)
Percentage of motility inhibition 0 h: 3%
Percentage of motility inhibition 24 h: 0%

C[C@H](CC(=O)[C@@H]1OC1(C)C)[C@H]1C(=O)C[C@@]2(C)C3=CC[C@H]4C(C)(C)[C@@H](O[C@@H]5OC[C@@H](O)[C@H](O)[C@H]5O)CC[C@@]45C[C@@]35[C@@H](O)C[C@]12C [Cimicifugoside H-1]
Percentage of motility inhibition 0 h: 0%
Percentage of motility inhibition 24 h: 3%

CO[C@@]1(NC(=O)C(C(=O)[O-])c2ccc(O)cc2)C(=O)N2C(C(=O)[O-])=C(CSc3nnnn3C)CO[C@@H]21.[Na+].[Na+] (stereo partly shown) [Moxalactam (sodium salt)]
Percentage of motility inhibition 0 h: 22%
Percentage of motility inhibition 24 h: 8%

C=C(CCC=C(C)C)[C@H]1CC[C@]2(C)[C@@H]1[C@H](O)C[C@@H]1[C@@]3(C)CC[C@H](O)C(C)(C)[C@@H]3[C@@H](O[C@@H]3O[C@H](CO)[C@@H](O)[C@H](O)[C@H]3O[C@@H]3O[C@@H](C)[C@H](O)[C@@H](O)[C@H]3O)C[C@]12C [Ginsenoside Rg6]
Percentage of motility inhibition 0 h: 1%
Percentage of motility inhibition 24 h: 4%

COc1cc(OC)c(CCC(=O)c2ccc(O)cc2)c(OC)c1 [Loureirin B]
Percentage of motility inhibition 0 h: 10%
Percentage of motility inhibition 24 h: 0%

COc1cc([C@@H]2Oc3c(O)cc([C@H]4Oc5cc(O)cc(O)c5C(=O)[C@@H]4O)cc3[C@H]2CO)ccc1O [Silychristin]
Percentage of motility inhibition 0 h: 33%
Percentage of motility inhibition 24 h: 2%

CC1(C)CCC[C@]2(C)[C@H]3CCO[C@]3(C)CC[C@@H]12 [Ambroxide]
Percentage of motility inhibition 0 h: 8%
Percentage of motility inhibition 24 h: 14%

CC(=O)O[C@@H]1CC[C@@]2(C)[C@@H](CC[C@]3(C)[C@@H]2C(=O)C=C2[C@@H]4[C@@H](C)[C@H](C)CC[C@]4(C)CC[C@]23C)[C@@]1(C)C(=O)O [AKBA]
Percentage of motility inhibition 0 h: 0%
Percentage of motility inhibition 24 h: 6%
